Laboratory results reported in patent US20090312284A1, “HISTONE DEACETYLASE INHIBITORS WITH COMBINED ACTIVITY ON CLASS-I AND CLASS-IIB HISTONE DEACETYLASES IN COMBINATION WITH PROTEASOME INHIBITORS” (priority 2006, published 2009).

Key:
[1] = tested on: acetylation of tubulin and induction of Hsp 70; assay: Acetylation of tubulin and induction of Hsp 70 in A2780 cells; format: cell-based, human; conditions: A2780 ovarian carcinoma cells, 24 h, 0-3000 nM, Western blot
Description: Total cell lysates were prepared and analysed by SDS-PAGE. […] Hsp 70 protein was detected with an antibody from Stressgen (Cat. nr. SPA-810), followed by ECL detection. Appropriate dilutions of antibodies were incubated for either 1-2 h at room temperature or overnight at 4° C. In order to control for equal loading, blots were stripped and re-probed with mouse monoclonal anti-actin IgM (Ab-1, Oncogene Research Products). […] Protein-antibody complexes were then visualized by chemiluminescence (Pierce Chemical Co) or fluorescence (Odyssey) according to the manufacturer's instructions. The experiments were performed three times.

[2] = tested on: acetylation of histone H3 and H4 and induction of p21waf1,cip1; assay: Acetylation of cellular HDAC 1 substrates and induction of p21waf1,cip1 in A2780 cells; format: cell-based, human; conditions: A2780 ovarian carcinoma cells, 24 h, 0-3000 nM, Western blot
Description: Total cell lysates were prepared and analysed by SDS-PAGE. Levels of acetylated H3 and H4 histones, total level of H3 proteins and levels p21^waf1,cip1 protein were detected using rabbit polyclonal and mouse monoclonal antibodies, followed by enhanced chemoluminescence (ECL) detection.
Appropriate dilutions of antibodies were incubated for either 1-2 h at room temperature or overnight at 4° C. […] Protein-antibody complexes were then visualized by chemiluminescence (Pierce Chemical Co) or fluorescence (Odyssey) according to the manufacturer's instructions. The experiments were performed three times.

[3] = tested on: HCT-116 cells; conditions: p21waf1,cip1 deficient cells as compared to the parental HCT-116 cells; cited from earlier work

Structure (SMILES) | concentration when start of induction of acetylation of tubulin and induction of Hsp 70 is observed [1] | concentration when induction of acetylation of histone H3 and H4 and induction of p21waf1,cip1 is observed [2] | increase in resistance to the HDAC inhibitor [3]
O=C(CCCCCCC(=O)Nc1ccccc1)NO [SAHA, suberoylanilide hydroxamic acid] | 100 nM | 3000 nM | 
O=C(NO)c1cnc(N2CCN(S(=O)(=O)c3ccc4ccccc4c3)CC2)nc1 [R306465] |  | 100 nM | 
CC(/C=C/C(=O)NO)=C\[C@@H](C)C(=O)c1ccc(N(C)C)cc1 [trichostatin A] |  |  | 6 fold
Cc1[nH]c2ccccc2c1CCNCc1ccc(/C=C/C(=O)NO)cc1 [LBH-589] | 30 nM |  | 
